Active and inactive are the calls of the source. The rule behind the calls is not given here.
Legend:
[1] = Clearance in Wistar Han rat at 1 mg/kg, iv or 2 mg/kg, po; settings: in vivo
Cavia porcellus [2] = assay: Cardiotoxicity in anesthetized cardiovascular guinea pig model assessed as prolongation of QTc interval administered as iv infusion; type: toxicity, organism-based; settings: in vivo
Cytochrome P450 3A4 [3] = target: T1, Cytochrome P450 3A4 (Homo sapiens, UniProt P08684); assay: Time dependent inhibition of CYP3A4 (unknown origin) in absence of NADPH; type: ADME
Cytochrome P450 2D6 = Cytochrome P450 2D6 (Homo sapiens, UniProt P10635); assay: Inhibition of CYP2D6 (unknown origin); type: ADME
[4] = Clearance in Beagle dog at 1 mg/kg, iv; type: ADME, organism-based, Canis lupus familiaris; settings: in vivo
[5] = Unbound fraction in guinea pig plasma at 3 mg/kg administered as iv infusion; type: ADME, organism-based, Cavia porcellus; settings: in vivo
[6] = Fraction unbound in dog plasma; type: ADME, cell-free, Canis lupus familiaris
Rattus norvegicus [7] = organism: Rattus norvegicus; settings: in vivo, po, 2 mg/kg
[8] = target: Sodium channel protein type 5 subunit alpha (Homo sapiens, UniProt Q14524); assay: Inhibition of Nav1.5 (unknown origin)
[9] = target: T2, ATP-sensitive inward rectifier potassium channel 1 (Homo sapiens, UniProt P48048); assay: Inhibition of human ROMK expressed in CHO cells at -70 mV holding potential after 6 mins by whole cell patch clamp Qpatch method; type: cell-based
T2 sequence (P48048 whole entry): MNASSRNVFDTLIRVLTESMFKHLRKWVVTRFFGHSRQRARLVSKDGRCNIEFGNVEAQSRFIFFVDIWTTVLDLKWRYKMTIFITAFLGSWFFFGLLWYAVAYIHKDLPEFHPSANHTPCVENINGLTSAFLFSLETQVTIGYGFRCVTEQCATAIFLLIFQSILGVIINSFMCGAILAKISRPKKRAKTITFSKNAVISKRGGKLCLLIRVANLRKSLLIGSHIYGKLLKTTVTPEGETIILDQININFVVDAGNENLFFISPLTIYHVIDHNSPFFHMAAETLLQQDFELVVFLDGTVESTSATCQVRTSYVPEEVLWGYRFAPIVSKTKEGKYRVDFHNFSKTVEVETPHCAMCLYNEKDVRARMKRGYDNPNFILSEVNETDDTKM

Cavia porcellus [10] = assay: Cardiotoxicity in anesthetized cardiovascular guinea pig model assessed as prolongation of QTc interval at 10 mg/kg administered as iv infusion relative to control; type: toxicity, organism-based; settings: in vivo
[11] = Fraction unbound in rat plasma; type: ADME, cell-free
[12] = target: T3, Nuclear receptor subfamily 1 group I member 2 (Homo sapiens, UniProt O75469); assay: Activity at PXR (unknown origin) assessed as CYP induction
T3 sequence (O75469 whole entry): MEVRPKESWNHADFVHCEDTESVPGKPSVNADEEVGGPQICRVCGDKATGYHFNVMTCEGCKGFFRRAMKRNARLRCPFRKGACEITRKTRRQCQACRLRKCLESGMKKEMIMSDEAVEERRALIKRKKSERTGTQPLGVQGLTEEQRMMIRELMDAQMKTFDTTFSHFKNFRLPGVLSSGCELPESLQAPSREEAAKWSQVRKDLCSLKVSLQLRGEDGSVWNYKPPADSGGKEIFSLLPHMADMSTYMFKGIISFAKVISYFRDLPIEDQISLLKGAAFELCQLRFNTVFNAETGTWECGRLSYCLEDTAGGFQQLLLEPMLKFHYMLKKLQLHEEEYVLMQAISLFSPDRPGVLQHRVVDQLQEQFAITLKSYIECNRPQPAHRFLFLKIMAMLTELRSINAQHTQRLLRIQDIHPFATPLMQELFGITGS

[13] = target: T4, Inward rectifier potassium channel 2 (Homo sapiens, UniProt P63252); assay: Inhibition of Kir2.1 (unknown origin)
T4 sequence (P63252 whole entry): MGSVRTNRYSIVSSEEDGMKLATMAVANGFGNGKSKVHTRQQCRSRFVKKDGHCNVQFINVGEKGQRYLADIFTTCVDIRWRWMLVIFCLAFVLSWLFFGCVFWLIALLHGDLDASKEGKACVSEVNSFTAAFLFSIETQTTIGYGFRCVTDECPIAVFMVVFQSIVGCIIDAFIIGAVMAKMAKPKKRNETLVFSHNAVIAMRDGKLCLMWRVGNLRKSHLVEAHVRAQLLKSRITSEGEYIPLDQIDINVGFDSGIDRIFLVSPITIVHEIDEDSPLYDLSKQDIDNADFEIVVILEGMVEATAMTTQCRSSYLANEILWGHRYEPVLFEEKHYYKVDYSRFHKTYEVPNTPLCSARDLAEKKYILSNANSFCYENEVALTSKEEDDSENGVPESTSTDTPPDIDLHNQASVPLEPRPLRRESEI

Cytochrome P450 2C8 = target: T5, Cytochrome P450 2C8 (Homo sapiens, UniProt P10632); assay: Inhibition of CYP2C8 (unknown origin); type: ADME
T5 sequence (P10632 whole entry): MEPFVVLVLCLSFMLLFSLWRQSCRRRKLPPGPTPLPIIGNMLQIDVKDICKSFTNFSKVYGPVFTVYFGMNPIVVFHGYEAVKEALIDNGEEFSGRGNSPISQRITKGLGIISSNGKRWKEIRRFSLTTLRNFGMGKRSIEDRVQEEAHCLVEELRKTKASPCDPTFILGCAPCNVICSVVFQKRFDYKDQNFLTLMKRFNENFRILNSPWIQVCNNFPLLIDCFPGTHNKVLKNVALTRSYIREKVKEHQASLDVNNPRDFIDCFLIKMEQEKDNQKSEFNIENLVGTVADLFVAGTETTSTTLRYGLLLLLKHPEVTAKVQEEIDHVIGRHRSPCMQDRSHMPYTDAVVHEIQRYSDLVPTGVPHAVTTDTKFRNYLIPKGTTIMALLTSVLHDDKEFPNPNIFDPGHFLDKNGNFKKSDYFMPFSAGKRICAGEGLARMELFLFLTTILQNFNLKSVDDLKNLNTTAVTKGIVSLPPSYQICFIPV

[14] = Unbound fraction in guinea pig plasma at 10 mg/kg administered as iv infusion; type: ADME, organism-based, Cavia porcellus; settings: in vivo
[15] = target: Sodium-dependent serotonin transporter (Homo sapiens, UniProt P31645); assay: Inhibition of human SERT
Cytochrome P450 3A4 [16] = target: T1, Cytochrome P450 3A4; assay: Inhibition of CYP3A4 (unknown origin); type: ADME
Cavia porcellus [17] = assay: Cardiotoxicity in anesthetized cardiovascular guinea pig model assessed as prolongation of QTc interval at 3 mg/kg administered as iv infusion relative to control; type: toxicity, organism-based; settings: in vivo
[18] = Volume of distribution at steady state in Wistar Han rat at 1 mg/kg, iv or 2 mg/kg, po; settings: in vivo
Cavia porcellus [19] = assay: Cardiotoxicity in anesthetized cardiovascular guinea pig model assessed as prolongation of QTc interval at 7 mg/kg administered as iv infusion relative to control; type: toxicity, organism-based; settings: in vivo
Rattus norvegicus [20] = assay: Antihypertensive activity in rat spontaneous hypertensive model assessed as induction of natriuresis at 3 mg/kg, po qd measured after 3 days; type: functional, organism-based
[21] = Fraction unbound in human plasma; type: ADME, cell-free
Rattus norvegicus [22] = assay: Antihypertensive activity in rat spontaneous hypertensive model assessed as change in systolic blood pressure at 3 mg/kg, po qd measured after 3 days; type: functional
[23] = Unbound fraction in guinea pig plasma at 7 mg/kg administered as iv infusion; type: ADME, organism-based, Cavia porcellus; settings: in vivo

T1 sequence (P08684 whole entry): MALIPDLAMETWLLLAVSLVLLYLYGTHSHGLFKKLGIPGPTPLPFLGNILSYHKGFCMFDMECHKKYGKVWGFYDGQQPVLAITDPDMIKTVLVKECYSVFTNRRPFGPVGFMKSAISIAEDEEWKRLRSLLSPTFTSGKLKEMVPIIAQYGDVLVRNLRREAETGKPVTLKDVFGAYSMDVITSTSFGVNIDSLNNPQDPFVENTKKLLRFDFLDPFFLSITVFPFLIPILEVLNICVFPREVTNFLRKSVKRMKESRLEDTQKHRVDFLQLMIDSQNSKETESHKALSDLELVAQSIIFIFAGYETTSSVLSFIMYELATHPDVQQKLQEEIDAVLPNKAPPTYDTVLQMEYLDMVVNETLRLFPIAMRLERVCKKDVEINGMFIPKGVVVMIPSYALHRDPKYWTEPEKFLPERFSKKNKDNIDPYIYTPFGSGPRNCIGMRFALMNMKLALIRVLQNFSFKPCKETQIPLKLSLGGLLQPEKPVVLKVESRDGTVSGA
Chain of Sodium channel protein type 5 subunit alpha (Q14524 whole entry): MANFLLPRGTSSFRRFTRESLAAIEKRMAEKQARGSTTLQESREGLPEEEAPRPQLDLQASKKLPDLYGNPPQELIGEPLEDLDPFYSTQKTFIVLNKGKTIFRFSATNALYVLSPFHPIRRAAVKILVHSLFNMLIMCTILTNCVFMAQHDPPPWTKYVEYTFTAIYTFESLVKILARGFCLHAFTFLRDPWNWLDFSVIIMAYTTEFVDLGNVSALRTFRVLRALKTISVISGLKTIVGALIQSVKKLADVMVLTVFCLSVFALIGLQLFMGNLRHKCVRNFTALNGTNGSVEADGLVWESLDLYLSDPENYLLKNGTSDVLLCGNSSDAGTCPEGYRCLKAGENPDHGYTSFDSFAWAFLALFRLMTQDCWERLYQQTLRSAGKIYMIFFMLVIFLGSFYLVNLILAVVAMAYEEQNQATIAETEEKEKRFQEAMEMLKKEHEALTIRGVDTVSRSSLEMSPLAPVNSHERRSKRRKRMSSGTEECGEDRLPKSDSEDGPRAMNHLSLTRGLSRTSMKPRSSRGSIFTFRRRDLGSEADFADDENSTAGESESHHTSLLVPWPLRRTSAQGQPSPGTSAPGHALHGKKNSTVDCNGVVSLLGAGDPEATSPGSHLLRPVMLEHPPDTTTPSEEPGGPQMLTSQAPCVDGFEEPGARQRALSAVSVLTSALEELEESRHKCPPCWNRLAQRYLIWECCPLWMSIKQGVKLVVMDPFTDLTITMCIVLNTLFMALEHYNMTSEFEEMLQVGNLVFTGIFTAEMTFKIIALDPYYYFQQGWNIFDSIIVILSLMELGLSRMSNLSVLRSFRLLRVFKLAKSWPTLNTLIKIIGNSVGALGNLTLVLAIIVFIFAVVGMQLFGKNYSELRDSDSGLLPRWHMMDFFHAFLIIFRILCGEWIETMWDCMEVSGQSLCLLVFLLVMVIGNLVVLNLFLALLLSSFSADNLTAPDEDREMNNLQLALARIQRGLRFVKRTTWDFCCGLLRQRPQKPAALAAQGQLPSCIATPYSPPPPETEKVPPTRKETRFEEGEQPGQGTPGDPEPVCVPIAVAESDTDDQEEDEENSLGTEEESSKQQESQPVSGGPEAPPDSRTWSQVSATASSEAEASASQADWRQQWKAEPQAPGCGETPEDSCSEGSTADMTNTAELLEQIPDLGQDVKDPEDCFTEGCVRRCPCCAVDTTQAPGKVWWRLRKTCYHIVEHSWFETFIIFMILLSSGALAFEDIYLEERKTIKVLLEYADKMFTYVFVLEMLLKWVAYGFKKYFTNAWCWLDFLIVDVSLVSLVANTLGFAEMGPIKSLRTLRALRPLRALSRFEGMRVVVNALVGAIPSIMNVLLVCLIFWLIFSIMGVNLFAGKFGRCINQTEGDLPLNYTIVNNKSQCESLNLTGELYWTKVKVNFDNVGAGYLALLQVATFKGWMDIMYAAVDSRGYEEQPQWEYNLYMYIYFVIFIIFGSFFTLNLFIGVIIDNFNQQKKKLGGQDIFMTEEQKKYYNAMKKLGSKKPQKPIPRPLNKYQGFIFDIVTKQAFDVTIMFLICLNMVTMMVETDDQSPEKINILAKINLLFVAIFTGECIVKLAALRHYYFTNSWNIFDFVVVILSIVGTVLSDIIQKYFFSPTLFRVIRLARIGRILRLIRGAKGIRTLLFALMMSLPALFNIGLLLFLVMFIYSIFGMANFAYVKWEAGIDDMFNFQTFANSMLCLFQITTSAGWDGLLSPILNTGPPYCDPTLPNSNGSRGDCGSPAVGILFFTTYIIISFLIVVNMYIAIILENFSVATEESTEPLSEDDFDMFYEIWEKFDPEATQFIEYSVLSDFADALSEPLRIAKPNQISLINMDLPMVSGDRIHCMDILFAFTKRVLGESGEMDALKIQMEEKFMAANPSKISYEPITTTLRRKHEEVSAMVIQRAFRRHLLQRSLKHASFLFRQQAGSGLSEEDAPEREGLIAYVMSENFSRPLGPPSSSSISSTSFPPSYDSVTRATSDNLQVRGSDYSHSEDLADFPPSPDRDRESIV
Chain of Sodium-dependent serotonin transporter (P31645 whole entry): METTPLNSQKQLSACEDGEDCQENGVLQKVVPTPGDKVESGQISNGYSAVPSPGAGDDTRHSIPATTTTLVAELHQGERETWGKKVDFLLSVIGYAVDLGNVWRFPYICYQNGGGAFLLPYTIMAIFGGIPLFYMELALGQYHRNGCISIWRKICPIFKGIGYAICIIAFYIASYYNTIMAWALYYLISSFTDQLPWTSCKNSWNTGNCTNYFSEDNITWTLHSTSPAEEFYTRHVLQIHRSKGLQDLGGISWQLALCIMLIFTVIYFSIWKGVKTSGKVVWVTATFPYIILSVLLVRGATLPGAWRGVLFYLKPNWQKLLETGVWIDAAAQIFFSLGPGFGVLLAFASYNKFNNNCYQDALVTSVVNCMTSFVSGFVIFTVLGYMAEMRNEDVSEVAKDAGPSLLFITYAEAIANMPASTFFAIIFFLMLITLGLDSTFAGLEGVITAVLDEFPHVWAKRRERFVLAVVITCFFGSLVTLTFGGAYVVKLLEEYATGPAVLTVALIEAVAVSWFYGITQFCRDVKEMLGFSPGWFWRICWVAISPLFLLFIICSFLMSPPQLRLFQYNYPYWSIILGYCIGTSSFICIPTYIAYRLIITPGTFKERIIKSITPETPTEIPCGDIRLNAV
Chain of Cytochrome P450 2D6 (P10635 whole entry): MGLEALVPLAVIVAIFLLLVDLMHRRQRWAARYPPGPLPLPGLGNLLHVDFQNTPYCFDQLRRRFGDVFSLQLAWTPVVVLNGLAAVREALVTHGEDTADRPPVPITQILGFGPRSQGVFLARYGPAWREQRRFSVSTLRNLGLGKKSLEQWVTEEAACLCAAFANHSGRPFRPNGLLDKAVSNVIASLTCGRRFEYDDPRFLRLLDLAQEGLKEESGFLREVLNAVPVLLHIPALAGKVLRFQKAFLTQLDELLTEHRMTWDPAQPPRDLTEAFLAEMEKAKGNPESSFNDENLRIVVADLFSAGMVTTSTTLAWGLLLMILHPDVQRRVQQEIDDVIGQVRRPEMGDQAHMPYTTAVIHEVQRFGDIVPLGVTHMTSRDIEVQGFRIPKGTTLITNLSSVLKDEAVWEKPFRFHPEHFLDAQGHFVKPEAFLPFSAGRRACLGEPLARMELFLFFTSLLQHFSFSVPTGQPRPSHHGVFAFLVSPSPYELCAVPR

With Cc1c([C@@H](O)CN2CCC3(CC2)CCN(c2ccc(=O)n(C)n2)C3=O)ccc2c1COC2=O the clearance [1] was 1.5 L/h/kg, the Activity (Cavia porcellus [2]) was “Dose-dependent effect” and the IC50 (Cytochrome P450 3A4 [3]) was over 50 µM. The IC50 (Cytochrome P450 2D6) was over 50 µM, the clearance [4] was 1.1 L/h/kg and the “Cp(f)” value [5] was 5.3 µM. The fraction unbound [6] was 0.405, the AUC/dose (Rattus norvegicus [7]) was 1.2 µM·kg·h/mg and the IC50 [8] was over 30 µM. The IC50 [9] was 0.017 µM, the Activity (Cavia porcellus [10]) was 16% and the fraction unbound [11] was 0.455. It also gave an IC50 [12] of over 30 µM, an IC50 [13] of over 100 µM and an IC50 (Cytochrome P450 2C8) of over 50 µM. For the same compound, the “Cp(f)” value [14] was 22.5 µM, the IC50 [15] was 10.4 µM and the IC50 (Cytochrome P450 3A4 [16]) was over 50 µM. The Activity (Cavia porcellus [17]) was 9%, the Vd [18] was 3.3 L/kg and the Activity (Cavia porcellus [19]) was 12%. For the same compound, the Activity (Rattus norvegicus [20]) was “Active”, the fraction unbound [21] was 0.456 and the Activity (Rattus norvegicus [22]) was -14 mmHg. For the same compound, the “Cp(f)” value [23] was 13.5 µM.

Source: ChEMBL document CHEMBL4028831, “Improvement of hERG-ROMK index of spirocyclic ROMK inhibitors through scaffold optimization and incorporation of novel pharmacophores” (Bioorg Med Chem Lett, 2017)
